Measurements from patent US11351144B2, “Compounds for inhibiting secretory leukocyte protease inhibitor (SLPI)” (The General Hospital Corporation, priority 2017, dated 2022).
Entries after “also recorded” stand apart in the source; their conditions may differ.

Legend:
[1] = test system: SLPI expression (luciferase plasmid driven by the SLPI promoter); assay: High-throughput screening: luciferase reporter driven by the SLPI promoter in MDA-MB-468 cells; assay type: cell-based, human; conditions: 0.31 to 5 μM (five concentrations), 24 hours
Excerpt: Human triple-negative MDA-MB-231, LS174T, HEK293T and MCF-7 and MDA-MB 468 cell lines were obtained from the ATCC collection. MDA-MB-468 cells stably expressing luciferase plasmid driven by the SLPI promoter were used for high-throughput screening. To generate SLPI overexpressing cells, cancer cells were infected with pBabe-SLPI retroviruses containing the LTR promoter and puromycin resistant genes. The SLPI knockdown 4T1 cell line was established by lentiviral infection of 4T1 cells. Lentiviral particles were produced by transfecting 293T cells with two different shRNA clones that targeted SLPI (MISSION shRNA Sigma) and viral packages (VSVG,psPAX2) using FuGENE reagent (Promega, US). SLPI down-regulation was confirmed by using both q-PCR and ELISA.
After establishing that SLPI is a valid target for inhibiting TNBC metastasis, small molecules for use in inhibiting SLPI pharmacologically were screened. Human TNBC cell line MDA-MB-468 with a Luciferase plasmid driven by the SLPI promoter was used to perform high-throughput screening of a small-molecule library of 60,000 chemically-diverse compounds. Compounds (5 μM) were diluted in 100% DMSO, and spotted per well to 384-well plates using a Multimek 96/384 Channel Automated Pipetter. A cell-based readout system was used for compound selection. […] Selected compounds were also analyzed with 90% of SLPI repression. […]

MDA-MB-468 cancer cells = assay: MTT cell viability assay, MDA-MB-468; assay type: cell-based, human; conditions: MDA-MB-468 cells, 24 hours
4T1 cancer cells = assay: MTT cell viability assay, 4T1; assay type: cell-based, murine; conditions: 4T1 cells, 24 hours
[2] = test system: normal human umbilical vein endothelial cells (HUVEC); assay: MTT cell viability assay, HUVEC; assay type: cell-based; conditions: 24 hours
4T1 TNBC = assay: Orthotopic 4T1 TNBC tumor growth and spontaneous lung metastases in BALB/c mice; assay type: in vivo
Method: Next, we tested whether treatment with the selected SLPI inhibitor C74 would decrease metastasis in vivo. Parental and modified 4T1 cells were injected into the third mammary fat pad of 8-week-old female BALB/C mice, 10^5 cells in 20 μL of HANKS per injection. The growing tumors were then either resected at a certain size or left as is. In the latter case, the mice were treated daily with intraperitoneal (i.p.) delivery of 20 mg/kg of the selected compound suppressing SLPI (or vehicle), for 12 consecutive days starting from day 6 after tumor implantation, when tumors were ˜3.8 mm in diameter on average (see FIG. 3D). The mice were sacrificed either on day 21 post primary tumor resection or 17 days after compound treatment initiation. The lungs were removed and placed in Bouin's solution (Sigma). A few days later, the lung surface was examined under a stereomicroscope and the number and size of metastases were evaluated.

[3] = test system: retinoblastoma (Rb) tumor suppressor protein phosphorylation; assay: Western blot of Rb phosphorylation in MDA-MB-231 and MCF7 cells; assay type: cell-based, human
Method: Lysates from 293T, MDA-MB-231, MCF7 and 4T1 cells were prepared in lysis buffer containing Tris-HCl 50 mM/pH 7.4; NaCl 150 mM; NP-40 1%; SDS 0.1%; Na-deoxycholate 0.5%; EDTA 1 mM; plus 1% phosphatase inhibitor cocktails I and II (Sigma-Aldrich, US), and 1% protease inhibitor cocktail (Roche). Equal amounts of protein (50 μg/sample) were resolved by SDS-PAGE, transferred onto nitrocellulose membranes, and immunoblotted using the following primary antibodies: anti-SLPI, anti-RB (Cell Signaling and Santa Cruz Biotechnology, US), anti-SOD2, Aurora kinase, cyclin B1 and anti-β-catenin (Cell Signaling Technology). For co-IP assays, lysates were pre-cleared with IgG, and incubated with anti-SLPI, anti-RB or control IgG antibodies linked to Sepharose-A beads. Protein complexes were dissociated from beads and separated by SDS-PAGE. Immunodetection was performed by incubation with HRP-conjugated species-specific antibodies, followed by chemiluminescence detection (Perkin Elmer, US).

Rb-FoxM1 interaction = assay: Mammalian two-hybrid system, GAL4-Rb and VP16-FoxM1 in HEK293T cells; assay type: cell-based, human; conditions: 1.5 μg/mL added to cell media, time course
Excerpt: For further verification of this interaction, a standard mammalian two-hybrid approach was used. The two genes encoding two of the three potentially interactive proteins of interest (Rb, SLPI and FoxM1) were cloned into pBIND and pACT vectors to generate fusion proteins with the DNA-binding domain of GAL4 and the activation domain of VP16. HEK293T cells were transiently transfected with a pG5luc luciferase reporter plasmid, pGAL4 and pVP16 fusion constructs. After two days, the transfected cells were lysed and the levels of luciferase were quantitated. Interaction between the two test proteins results in an increase in luciferase expression over the negative controls that included pBIND and pACT vectors. The pairs of fusion proteins GAL4-Rb plus VP16-SLPI induced activation of the reporter construct about 7 times more than the negative controls, as shown in FIG. 4C.

[4] = test system: FoxM1 binding to the MMP2 promoter; assay: Electrophoretic mobility shift assay, FoxM1 binding to MMP2 promoter probe; assay type: cell-based, human; conditions: protein extracts from treated MDA-MB-231 cells versus untreated cells
Method: To directly test the ability of SLPI to modify FoxM1 binding to another target gene, MMP2, we used the electrophoretic mobility shift assay. Electrophoretic mobility shift assays (EMSAs) were performed following manufacture protocol using kit from Thermo Fisher. Double-stranded oligonucleotides from MMP2 promoter with FoxM1 binding site were used: 5′-[…]-3′ (SEQ ID NO: 1). End-labelled DNA was detected using streptavidin-conjugated horseradish peroxidase. For the supershift assay, antibody against FoxM1 (Cell Signaling) was added to the binding reaction for 1 hour on ice.
The MMP2 promoter sequence comprising the FoxM1-binding site (−662 to −671 bp) was biotin-labeled and used as a probe for the protein binding gene promoter region (see e.g., Dai et al, Oncogene, 2007, 26:6212-6219). The probe was incubated with protein extracts from SLPI-treated MDA-MB-231 cells and untreated cells. […] The binding of this protein to the probe was sequence-specific, as it was blocked by competition with an unlabeled FoxM1 oligomer. To confirm that FoxM1 bound to MMP2 promoter in the presence of SLPI, a supershift assay was performed by adding FoxM1-binding antibody to that protein-DNA complex. The enhanced probe retardation is shown in lane 5 in FIG. 6A.

[5] = 20 mg/kg i.p. daily for 12 days, lungs evaluated on day 23

Row | Molecule | SLPI expression quantified using luciferase activity driven by the SLPI promoter [1] | toxic effect (cell viability, MTT assay) (MDA-MB-468 cancer cells) | toxic effect (cell viability, MTT assay) (4T1 cancer cells) | toxic effect (cell viability, MTT assay) [2] | changes in mouse weight, appearance, or behavior (4T1 TNBC; 20 mg/kg i.p. daily for 12 days) | decrease of total number of lung metastases (4T1 TNBC; [5]) [%] | size of lung metastatic colonies (4T1 TNBC; [5]) | primary tumor growth (tumor diameter) (4T1 TNBC; 4T1 in mammary fat pad, 20 mg/kg i.p. daily for 12 days from day 6, 20 mg/kg) | Rb phosphorylation (phospho-Rb Western blot) ([3]; 1 μM for 16 h) | Rb phosphorylation (phospho-Rb Western blot) ([3]; recombinant protein 1.5 μg/mL, as early as 1-2 h post treatment) | reporter construct activation (Rb-FoxM1 binding) (Rb-FoxM1 interaction) | binding activity of FoxM1 to MMP2 promoter probe [4]
1 | CCCOC(=O)c1cccc(NC(=O)COc2ccccc2Cl)c1 [Compound C74, propyl 3-(2-(2-chlorophenoxy)acetamido)benzoate] | inhibition of SLPI expression; also recorded: Dose dependence of SLPI repression was confirmed | no toxic effect | no toxic effect | no toxic effect | did not cause changes | 50 | much smaller | suppressed tumor growth and metastasis; also recorded: small, progressive inhibition of primary tumor growth | repressed Rb phosphorylation; also recorded: decreased phosphorylation of Rb |  |  | 
2 | recombinant SLPI protein: recombinant secretory leukocyte protease inhibitor protein added to cells at 1.5 μg/mL (protein, UniProt P03973 26-132, looked up) Antileukoproteinase: SGKSFKAGVCPPKKSAQCLRYKKPECQSDWQCPGKKRCCPDTCGIKCLDPVDTPNPTRRKPGKCPVTYGQCLMLNPPNFCEMDGQCKRDLKCCMGMCGKSCVSPVKA |  |  |  |  |  |  |  |  |  | increased phosphorylation of Rb | progressive decrease of reporter construct activation | substantial increase in binding activity of FoxM1
